Common to all, as to assay: formaldehyde-responsive FrmR GFP reporter in E. coli cells
Type in all cases: cell-based
Holding throughout (settings): whole cells, 0-500 mM methanol, 2 h, 37°C, NAD-dependent

In assay [1] the target is T1, mdh from Geobacillus stearothermophilus (Geobacillus stearothermophilus, UniProt P42327).
T1 sequence (P42327 1-339): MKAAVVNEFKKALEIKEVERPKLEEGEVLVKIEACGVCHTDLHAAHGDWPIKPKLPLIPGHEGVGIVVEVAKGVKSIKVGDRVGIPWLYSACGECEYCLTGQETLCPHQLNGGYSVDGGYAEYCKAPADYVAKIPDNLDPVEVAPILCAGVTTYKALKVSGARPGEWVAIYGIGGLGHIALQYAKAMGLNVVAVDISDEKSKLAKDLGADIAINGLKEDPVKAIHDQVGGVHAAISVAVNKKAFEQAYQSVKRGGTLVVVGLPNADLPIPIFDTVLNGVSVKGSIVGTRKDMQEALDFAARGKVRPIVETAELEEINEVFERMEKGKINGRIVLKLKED

Assay [2] concerns the target T2, mdh2 from Cupriavidus necator (Cupriavidus necator, UniProt F8GNE5).
T2 sequence (F8GNE5 1-390): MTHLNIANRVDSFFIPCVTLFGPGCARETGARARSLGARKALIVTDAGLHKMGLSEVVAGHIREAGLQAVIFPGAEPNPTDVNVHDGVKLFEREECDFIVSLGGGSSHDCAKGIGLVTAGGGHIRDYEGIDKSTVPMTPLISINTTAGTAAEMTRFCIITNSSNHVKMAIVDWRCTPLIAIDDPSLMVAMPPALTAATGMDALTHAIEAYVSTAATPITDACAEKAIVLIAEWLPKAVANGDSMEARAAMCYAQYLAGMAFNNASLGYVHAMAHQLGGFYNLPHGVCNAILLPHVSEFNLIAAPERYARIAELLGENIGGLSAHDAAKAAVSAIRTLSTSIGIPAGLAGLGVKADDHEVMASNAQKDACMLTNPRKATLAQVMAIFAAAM

Assay [3] addresses T3, AdhA from C. glutamicum (Corynebacterium glutamicum, UniProt Q8NLX9).
T3 sequence (Q8NLX9 1-345): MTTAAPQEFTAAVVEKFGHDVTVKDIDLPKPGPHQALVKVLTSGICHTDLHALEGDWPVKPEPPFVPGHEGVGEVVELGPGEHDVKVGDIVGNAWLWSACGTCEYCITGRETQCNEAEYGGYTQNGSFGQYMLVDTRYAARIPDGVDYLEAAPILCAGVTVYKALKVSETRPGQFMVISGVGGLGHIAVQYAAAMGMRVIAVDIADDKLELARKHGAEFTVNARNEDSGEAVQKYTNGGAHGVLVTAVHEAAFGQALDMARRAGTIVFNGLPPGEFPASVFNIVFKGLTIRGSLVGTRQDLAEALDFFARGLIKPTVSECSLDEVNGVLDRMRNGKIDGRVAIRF

The text below walks through data of article PMC5699943 (Biotechnology and bioengineering, 2017).

As to `CO` [methanol], the “formaldehyde-responsive FrmR GFP reporter in E. coli cells” value is recorded as “After two hours, signal was detected for all variants except Mdh1” in assay [1]; “After two hours, signal was detected for all variants except Mdh1” in assay [2]; “After two hours, signal was detected for all variants except Mdh1” in assay [3].
